Where two headings read alike, the source gives them in different places.
Key:
[1] = tested on: human cancer cell lines A549, HepG2, MCF-7, Caco-2, and HeLa; assay: MTT assay, panel of human cancer cell lines (statements in words); type: cell-based; conditions: five cancer cell lines, after 24 h of treatment, compared to CU
Procedure: (§1) The human cancer cell lines A549, HepG2, MCF-7, Caco-2, and HeLa and the normal human liver cell line LO2 were all obtained from Shanghai Cell Bank of China. All cells were cultured in RPMI 1640 or DMEM supplemented with 10% fetal bovine serum, 100 U/mL penicillin, and 100 μg/mL streptomycin and incubated at 37°C under 5% CO2 (HEPA incubator class100 Thermo company). The medium was replaced three times a week. Cells used in all were in the exponential growth phase.
(§2) The cell inhibition rate was evaluated using the MTT assay. Briefly, cells were seeded in a 96-well plate at a density of 3–4 × 10^3 cells per well and incubated at 37°C for 24 h. The MCACs to be tested were dissolved in dimethyl sulfoxide (DMSO, Merck, Germany) and diluted to five concentrations (3.75, 7.5, 15, 30, 60 μM/L) with RPMI 1640 medium, with each dose analyzed in quadruplicate. The concentration of DMSO was always maintained below 1‰, a concentration that is nontoxic to cells. After incubation for 24 or 48 h, MTT reagent (5 mg/mL) was added to each well and the samples were incubated for 3 h at 37°C in the dark. The absorbance of formazan crystals dissolved in 150 µL of DMSO was measured at 570 nm using a microplate reader to identify the cytotoxic effect of the analogues.

[2] = tested on: normal human liver cell line LO2; assay: MTT assay, normal liver cells LO2; type: cell-based
Procedure: as §1, §2

[3] = tested on: colon cancer cells Caco-2; assay: MTT antiproliferative assay, Caco-2; type: cell-based, human; conditions: for SI Caco2: logarithm of ratio IC50 LO2 / IC50 cancer cells; for IC50: Homo sapiens, read-out: IC50 Caco2
Procedure: as §1, §2

[4] = tested on: cervical cancer cells HeLa; assay: MTT antiproliferative assay, HeLa; type: cell-based; conditions: Homo sapiens
Procedure: as §1, §2

liver cancer cells HepG2 = assay: MTT antiproliferative assay, HepG2; type: cell-based; conditions: Homo sapiens
Procedure: as §1, §2

[5] = tested on: breast cancer cells MCF-7; assay: MTT antiproliferative assay, MCF-7; type: cell-based; conditions: Homo sapiens
Procedure: as §1, §2

lung cancer cells A549 = assay: MTT antiproliferative assay, A549; type: cell-based; conditions: Homo sapiens
Procedure: as §1, §2

Caco-2 xenograft tumors = assay: In vivo anticancer activity, Caco-2 xenograft; conditions: Caco-2 xenograft; CA8 100 mg/kg, CU 100 mg/kg, tegafur 50 mg/kg, gavage every other day
Procedure: Twenty 5-week-old male BALB nude mice purchased from SPF (Beijing) Biotechnology Co., Ltd. were used for the in vivo pharmacodynamic experiment of CA8. Caco-2 cells (6 × 10^6 cells in 100 μL PBS) were harvested and subcutaneously injected into the right hip of the mice. Then, they were divided into four groups when the tumor volume reached 100 mm^3 and treated with saline, CU (100 mg/kg), tegafur (50 mg/kg), or CA8 (100 mg/kg) via gavage every other day. Tumor size and body weight were measured and recorded every other day. At the end of the experiment, the mice were sacrificed and tumors were harvested and weighed. Tumor volumes were calculated by measuring length (L) and width (W) according to the following formula: V = 0.5 × L × W^2. The tumor tissue was embedded in paraffin, cut into slices, stained with HE, and observed under a light microscope.

[6] = Solubility in water by HPLC; type: physicochemical; conditions: 25°C, mass of solute dissolved at saturation in 100 g of solvent
Procedure: The solubility of the synthesized compounds in water was determined using high performance liquid chromatography (HPLC). First, 1.000 g of each compound was accurately weighed, placed in 100 g of water, and stirred at 25°C for a period of time. Then, the reaction system was allowed to stand for 1 h. The supernatant was quantitatively taken, diluted with methanol to volume, and centrifuged, and the solubility was determined using HPLC.

Row | Structure (SMILES) | cytotoxicity [1] | IC50 ([2]; 24 h) | IC50 ([2]; 48 h) | SI Caco2 ([3]; 48 h) | IC50 ([3]; Caco-2, 24 h) | IC50 ([3]; Caco-2, 48 h) | IC50 ([4]; 24 h) | IC50 ([4]; 48 h) | IC50 (liver cancer cells HepG2; HepG2, 24 h) | IC50 (liver cancer cells HepG2; HepG2, 48 h) | IC50 ([5]; MCF7, 24 h) | IC50 ([5]; MCF7, 48 h) | IC50 (lung cancer cells A549; A549, 24 h) | IC50 (lung cancer cells A549; A549, 48 h) | inhibitory effect on tumor growth (Caco-2 xenograft tumors) | SI Caco2 ([3]; 24 h) | Solubility [6]
1 | COc1ccc(/C=C2\CCC/C(=C\c3ccc(OC)nc3)C2=O)cn1 [CA3] | low toxicity | > 60 µM | > 60 µM | > 0.1 | > 60 µM | 47.4 ± 0.91 µM | 29.6 ± 2.57 µM | 38.3 ± 1.11 µM | 30.6 ± 5.99 µM | 15.5 ± 0.42 µM | > 60 µM | > 60 µM | > 60 µM | > 60 µM | – | – | –
2 | O=c1[nH]c(=O)n(C2CCCO2)cc1F (stereo not shown) [tegafur, reference compound] | – | – | – | – | – | – | – | – | – | – | – | – | – | – | CA8 > tegafur > CU | – | –
3 | COc1cc(/C=C2\CN(C)C/C(=C\c3ccc(OC4CCCCO4)c(OC)c3)C2=O)ccc1OC1CCCCO1 (stereo not shown) [CA9] | – | 15 ± 0.95 µM | 5 ± 0.09 µM | 0.38 | 3 ± 0.6 µM | 2.09 ± 0.32 µM | 8.4 ± 0.2 µM | 4.3 ± 0.1 µM | 11.2 ± 0.5 µM | 10.7 ± 1.6 µM | 22.2 ± 1.8 µM | 10.9 ± 1.3 µM | 21.4 ± 2.7 µM | 11.7 ± 0.5 µM | – | 0.70 | 1.37 mg/100g
4 | COc1ccc(/C=C/C(=O)/C=C/c2ccc(OC)nc2)cn1 [CA2] | – | 31 ± 0.41 µM | 17.5 ± 1.09 µM | 0.23 | 15.8 ± 0.3 µM | 10.4 ± 0.7 µM | 18.1 ± 0.8 µM | 18.1 ± 0.8 µM | 25.2 ± 1 µM | 19.8 ± 0.4 µM | 21.3 ± 3.1 µM | 16.8 ± 0.6 µM | 25.9 ± 1.3 µM | 16.1 ± 0.8 µM | – | 0.29 | 0.42 mg/100g
5 | Cc1cc(/C=C2\CNC/C(=C\c3cc(C)c(O)c(C)c3)C2=O)cc(C)c1O [CA6] | low toxicity | > 60 µM | > 60 µM | – | > 60 µM | > 60 µM | > 60 µM | > 60 µM | 50.4 ± 15.1 µM | 9.28 ± 0.68 µM | > 60 µM | > 60 µM | > 60 µM | > 60 µM | – | – | 15.04 mg/100g
6 | COc1ccc(/C=C2\CN(C)C/C(=C\c3ccc(OC)nc3)C2=O)cn1 [CA4] | – | 6.11 ± 0.33 µM | 2.5 ± 0.13 µM | −0.59 | 7.7 ± 1.8 µM | 9.4 ± 1 µM | 4.6 ± 0.5 µM | 2.7 ± 0.5 µM | 2.63 ± 0.38 µM | 1.95 ± 0.2 µM | 17 ± 1.6 µM | 7.8 ± 0.7 µM | 22.9 ± 2.7 µM | 12.5 ± 0.2 µM | – | −0.10 | 2.63 mg/100g
7 | COc1ccc(/C=C/C(=O)CC(=O)/C=C/c2ccc(OC)nc2)cn1 [CA1] | low toxicity | > 60 µM | 57.6 ± 4.83 µM | – | > 60 µM | > 60 µM | > 60 µM | 56.5 ± 3.7 µM | > 60 µM | 46.9 ± 2.6 µM | > 60 µM | 47.3 ± 2.1 µM | > 60 µM | 28.6 ± 2.2 µM | – | – | 0.07 mg/100g
8 | COc1ccc(/C=C2\CN(C(C)C)C/C(=C\c3ccc(OC)nc3)C2=O)cn1 [CA5] | – | 9.8 ± 0.51 µM | 6.9 ± 0.46 µM | 0.15 | 14.7 ± 0.73 µM | 4.87 ± 0.19 µM | 2.35 ± 0.09 µM | 1.81 ± 0.36 µM | > 60 µM | 2.18 ± 0.4 µM | 30.1 ± 3.36 µM | 4.94 ± 1.42 µM | 28 ± 0.77 µM | 34.7 ± 1.89 µM | – | −0.17 | 0.22 mg/100g
9 | Cc1cc(/C=C2\CN(C(C)C)C/C(=C\c3cc(C)c(O)c(C)c3)C2=O)cc(C)c1O [CA7] | – | 39.2 ± 1.67 µM | 8.4 ± 0.41 µM | 0.05 | 44.4 ± 7.38 µM | 7.44 ± 0.49 µM | 5.26 ± 0.49 µM | 1.26 ± 0.18 µM | 22.7 ± 1.37 µM | 2.71 ± 0.49 µM | 54.2 ± 17.3 µM | 18.2 ± 0.52 µM | 36.1 ± 4.76 µM | 43.8 ± 5.13 µM | – | −0.05 | 3.29 mg/100g
